Results taken from US5281604A, “Angiotensin II receptor blocking 2,3,6-substituted quinazolinones” (American Cyanamid Company, priority 1993, dated 1994).
Values joined by “and” are separate entries in the source; they are usually repeats but may differ in a detail not shown here. Equal entries are not always repeated.

Test system: ANGIOTENSIN II (AII) VASOPRESSOR RESPONSE
Assay: AII Challenge: blockade of the angiotensin II vasopressor response in conscious spontaneously hypertensive rats
Type: in vivo, rat (Male Okamoto-Aoki SHR)
Conditions: 3 mg/kg i.v.
Excerpt: By administering a compound of this invention to a rat, and then challenging with angiotensin II, a blockage of the vasopressor response is realized.
Conscious Male Okamoto-Aoki SHR, 16-20 weeks old, weighing approximately 330 g are purchased from Charles River Labs (Wilmington, Mass.). Conscious rats are restrained in a supine position with elastic tape. The area at the base of the tail is locally anesthetized by subcutaneous infiltration with 2% procaine. The ventral caudal artery and vein are isolated, and a cannula made of polyethylene (PE) 10-20 tubing (fused together by heat) is passed into the lower abdominal aorta and vena cava, respectively. The cannula is secured, heparinized (1,000 I.U./ml), sealed and the wound is closed. The animals are placed in plastic restraining cages in an upright position. The cannula is attached to a Statham P23Db pressure transducer, and pulsatile blood pressure is recorded to 10-15 minutes with a Gould Brush recorder. (Chan et al., (Drug Development Res., 18:75-94, 1989).
Angiotensin II (human sequence, Sigma Chem. Co., St. Louis, Mo.) of 0.05 and 0.1 ug/kg i.v. is injected into all rats (predosing response). Then a test compound, vehicle or a known angiotensin II antagonist is administered i.v., i.p. or orally to each set of rats. The two doses of angiotensin II are given to each rat again at 30, 60, 90, 120, 180, 240 and 300 minutes post dosing the compound or vehicle. The vasopressor response of angiotensin II is measured for the increase in systolic blood pressure in mmHg. The percentage of antagonism or blockade of the vasopressor response of angiotensin II by a compound is calculated using the vasopressor response (increase in systolic blood pressure) of angiotensin II of each rat predosing the compound as 100%. A compound is considered active if at 30 mg/kg i.v. it antagonized at least 50% of the response.

[1] = AII 0.05 mcg/kg IV, 30 min post dose
[2] = AII 0.05 mcg/kg IV, 60 min post dose
[3] = AII 0.05 mcg/kg IV, 90 min post dose
[4] = AII 0.05 mcg/kg IV, 120 min post dose
[5] = AII 0.05 mcg/kg IV, 180 min post dose
[6] = AII 0.05 mcg/kg IV, 240 min post dose
[7] = AII 0.05 mcg/kg IV, 300 min post dose
[8] = AII 0.1 mcg/kg IV, 30 min post dose
[9] = AII 0.1 mcg/kg IV, 60 min post dose
[10] = AII 0.1 mcg/kg IV, 90 min post dose
[11] = AII 0.1 mcg/kg IV, 120 min post dose
[12] = AII 0.1 mcg/kg IV, 180 min post dose
[13] = AII 0.1 mcg/kg IV, 240 min post dose
[14] = AII 0.1 mcg/kg IV, 300 min post dose

CCCCc1nc2ccc(C3CC4C(c5ccc(C)cc5)=NOC4O3)cc2c(=O)n1Cc1ccc(-c2ccccc2-c2nnn[nH]2)cc1 (stereo not shown) [Example 12]
% Inhibition [1]: 56% | Average Change [1]: 16.5 mmHg | Control Before AII (single rat) [1]: 220 mmHg and 255 mmHg | Response After AII (single rat) [1]: 233 mmHg and 275 mmHg | Response Change (single rat) [1]: 13 mmHg and 20 mmHg | % Inhibition [2]: 53% | Average Change [2]: 17.5 mmHg | Control Before AII (single rat) [2]: 215 mmHg and 245 mmHg | Response After AII (single rat) [2]: 235 mmHg and 260 mmHg | Response Change (single rat) [2]: 20 mmHg and 15 mmHg | % Inhibition [3]: 60% | Average Change [3]: 15 mmHg | Control Before AII (single rat) [3]: 225 mmHg and 235 mmHg | Response After AII (single rat) [3]: 240 mmHg and 250 mmHg | Response Change (single rat) [3]: 15 mmHg | % Inhibition [4]: 45% | Average Change [4]: 20.5 mmHg | Control Before AII (single rat) [4]: 207 mmHg and 225 mmHg | Response After AII (single rat) [4]: 233 mmHg and 240 mmHg | Response Change (single rat) [4]: 26 mmHg and 15 mmHg | % Inhibition [5]: 33% | Average Change [5]: 25 mmHg | Control Before AII (single rat) [5]: 195 mmHg and 225 mmHg | Response After AII (single rat) [5]: 225 mmHg and 245 mmHg | Response Change (single rat) [5]: 30 mmHg and 20 mmHg | % Inhibition [6]: 53% | Average Change [6]: 17.5 mmHg | Control Before AII (single rat) [6]: 220 mmHg and 230 mmHg | Response After AII (single rat) [6]: 240 mmHg and 245 mmHg | Response Change (single rat) [6]: 20 mmHg and 15 mmHg | % Inhibition [7]: 48% | Average Change [7]: 19.5 mmHg | Control Before AII (single rat) [7]: 220 mmHg and 230 mmHg | Response After AII (single rat) [7]: 245 mmHg and 244 mmHg | Response Change (single rat) [7]: 25 mmHg and 14 mmHg | % Inhibition [8]: 53% | Average Change [8]: 18.5 mmHg | Control Before AII (single rat) [8]: 218 mmHg and 250 mmHg | Response After AII (single rat) [8]: 245 mmHg and 260 mmHg | Response Change (single rat) [8]: 27 mmHg and 10 mmHg | % Inhibition [9]: 42% | Average Change [9]: 22.5 mmHg | Control Before AII (single rat) [9]: 220 mmHg and 240 mmHg | Response After AII (single rat) [9]: 245 mmHg and 260 mmHg | Response Change (single rat) [9]: 25 mmHg and 20 mmHg | % Inhibition [10]: 29% | Average Change [10]: 27.5 mmHg | Control Before AII (single rat) [10]: 220 mmHg and 230 mmHg | Response After AII (single rat) [10]: 250 mmHg and 255 mmHg | Response Change (single rat) [10]: 30 mmHg and 25 mmHg | % Inhibition [11]: 23% | Average Change [11]: 30 mmHg | Control Before AII (single rat) [11]: 205 mmHg and 225 mmHg | Response After AII (single rat) [11]: 240 mmHg and 250 mmHg | Response Change (single rat) [11]: 35 mmHg and 25 mmHg | % Inhibition [12]: 42% | Average Change [12]: 22.5 mmHg | Control Before AII (single rat) [12]: 205 mmHg and 225 mmHg | Response After AII (single rat) [12]: 225 mmHg and 250 mmHg | Response Change (single rat) [12]: 20 mmHg and 25 mmHg | % Inhibition [13]: 10% | Average Change [13]: 35 mmHg | Control Before AII (single rat) [13]: 220 mmHg and 225 mmHg | Response After AII (single rat) [13]: 260 mmHg and 255 mmHg | Response Change (single rat) [13]: 40 mmHg and 30 mmHg | % Inhibition [14]: 10% | Average Change [14]: 35 mmHg | Control Before AII (single rat) [14]: 220 mmHg and 225 mmHg | Response After AII (single rat) [14]: 255 mmHg and 260 mmHg | Response Change (single rat) [14]: 35 mmHg
